From patent publication US8889883B2, “BODIPY structure fluorescence dye for neural stem cell probe” (National University of Singapore, priority 2010, dated 2014)

System: E14.5 fetal mouse brain cells
Assay: Neurosphere assay of FACS-sorted fetal mouse brain cells
Assay type: cell-based
Details: CDr3, SSEA-1, Aldefluor, CD133 sorted cells
Method: Next, we were interested to test whether CDr3 can be used for the isolation of NSC from the heterogeneous populations of cells. According to the protocol described by Bibel et al.^7, we induced differentiation of E14 to generate FABP7-positive radial glial cells. The embryoid bodies generated from E14 in the absence of leukemia inhibitory factor were treated with retinoic acid for 2 days until dissociation into single cell suspension. The cells were stained with CDr3 and the CDr3bright and CDr3dim cells were collected separately by FACS. Each cell population was stained with FABP7 antibody and analyzed by flow cytometry. […] For the NSC isolation from the brain tissue, we incubated the E14.5 fetal mouse brain primary cells with CDr3, and the CDr3^bright and CDr3^dim cells were collected separately by FACS for gene expression analysis by real time RT-PCR and neurosphere assay. The expression levels of FABP7, Hes1, Musashi, Nestin and Pax6 in CDr3^bright cells were more than 3-fold higher than in CDr3^dim cells, while the differences of Hes5, Sox2 and Bmi1 expression levels were less than 2-fold (FIG. 5). […]
E14.5 fetal mouse brains were trypsinized in 0.25% trypsin with 1 mM EDTA solution (Invitrogen) for 30 mins at 37° C. before neutralization with FBS. […] The number and size of neurospheres generated from each group were measured after 6 days culture. […]

Cc1cc(C)n2c1C=C1C=CC(CCC(=O)NCC=O)=[N+]1[B-]2(F)F [Aldefluor, BODIPY-aminoacetaldehyde]
sizes of neurospheres from sorted cells: all similar
